Data set [1] deals with naturally occurring osteoarthritis. Briefly: Example 3: randomized, blinded multi-centre clinical trial in dogs with naturally occurring osteoarthritis (Clinical Sum Score). The format is in vivo, dog. The settings on record: loading dose 4 mg/kg then 2 mg/kg weekly; for P of reduction in CSS compared to the Placebo group: tablets. As to the method:
One study (headed as example 3) has been performed to evaluate the efficacy of E-6087 in dogs with naturally occurring osteoarthritis under real field conditions. E-6087 was administered in tablets.
For a dog to be included in the study, the following criteria must be fulfilled: • 1. Owner's consent obtained prior to the start of any study activities. • 2. Age ≥12 months. • 3. Body weight ≥5 kg. • 4. Clinical signs of osteoarthritis for one (with the exception of the spine including spinal joints, cranium, and vertebral column) or more joints for at least 3 weeks. • 5. Confirmation by radiographic evidence of the presence of osteoarthritis in the dog. […] Minimum Clinical Sum Score (CSS) ≥6. If more than one joint was affected by OA, the most severely affected joint (with the exception of the spine) was assessed subsequently for efficacy.
Once included, dogs were randomly assigned to a treatment group. A practitioner was in charge of administering either a Placebo or E-6087 under two different dosage regimes to animals, while another one was in charge of blindly evaluating the progression of clinical signs during a 42-day follow-up.
A Clinical Sum Score (CSS) was used for the assessment of pain and lameness at several time points during the follow-up, including clinical assessments in this order for posture, lameness at walk, lameness at rot and pain at palpation/manipulation. The CSS was the sum of the individual scores.
This study was designed to evaluate the effectiveness of E-6087 under real field conditions. E-6087 was administered at a loading dose of 4 mg/kg followed by weekly maintenance doses of 2 mg/kg The study was designed as a controlled, randomized, blinded, multi-centre clinical trial.
A total of 60 osteoarthritic dogs were included in the E-6087 group and 60 dogs in the Placebo group. All dogs underwent a follow-up period of 42 days, with clinical evaluations of lameness and pain on days 0, 7, 14, 28 and 42. A Clinical Sum Score (CSS) was calculated for the lameness and pain parameters at each time point.

The subject of data set [2] is urate crystal induced acute arthritis in the stifle (femorotibial) joint. Briefly: Example 2: urate crystal acute arthritis model in dogs, loading dose plus weekly maintenance doses of E-6087. The format is in vivo, dog. From the text: (§1) The experimental model used in both studies was the same and it consists in the induction of an acute arthritis through the inoculation of an urate crystal suspension in the stifle (femorotibial) joint of dogs. […] Partial or total inhibition of this reaction at a given time point after treatment administration is attributable to its pharmacological effect.
(§2) The reversible urate crystal arthritis model used in next examples has been previously described in the literature [Toutain P. L. et al. J. Vet. Pharmacol. Therap. 24, 43-55, 2001].
(§3) A sodium urate crystal suspension at a concentration of 10 mg·mL-1 was prepared as follows: • Uric acid sodium salt (Sigma) was weighed in a 100 mL graduated flask. • 0.9% NaCl solution was added to a final volume of 100 mL. • The suspension was mixed at room temperature by vortexing for approximately 5 min, by magnetic stirring for 5 min and was then sonicated for approximately 1 h. • The suspension was distributed in 1.5 mL vials and then autoclaved for 2 h at 120° C. • Finally the suspension was mixed by vortexing for 5 min, and sonicated for approximately 1 h.
(§4) The intra-articular injections were performed under general anaesthesia using Propovet multidose at a propofol dose of 6.5 mg.kg-1 by intravenous route without premedication. This induction medication was intended to result in a rapid onset anaesthesia with duration of about 10 minutes of unconsciousness and full recovery within approximately 30 minutes. For most of the dogs, Propovet multidose (half dose) was re-injected to maintain appropriate anaesthesia.
(§5) All urate crystal injections were introduced in the stifle (femorotibial) joint. The intra-articular injection was performed under aseptic conditions using a 30 mm long and 1 mm diameter sterile needle and a 2.5 mL syringe. The joint was checked for successful joint puncture, by synovial aspiration. One millilitre of urate crystal suspension was used for each intra-articular injection.
(§6) The duration of the induced inflammatory process was expected to be approximately 16 to 24 h and the average time of maximum lameness in untreated animals 2 to 3 hours after induction.
(§7) To assess the anti-inflammatory and analgesic effect of the test item, two clinical signs of arthritis were investigated: lameness and pain, respectively. Their intensity was determined using the following scoring systems:
This study was designed to evaluate the effectiveness of two different treatment regimes for E-6087. In both cases it was administered a loading dose, followed by a weekly maintenance dose. […]
According to the institutional ethics committee's recommendations, the first and third inoculations were performed in the right stifle while the second inoculation was performed in the left stifle. On each day of arthritis induction, the anti-inflammatory and analgesic efficacy of treatments was assessed at different time points (just before the inoculation, and 0.5, 1, 2, 3, 4, 6, 9 and 12 hours later).
Two clinical signs of arthritis were assessed by using a scoring system at each time point: visual lameness (whilst standing and walking) and pain at (inoculated stifle) palpation. A combined visual lameness score, determined as the sum of the standing and walking lameness scores, was calculated and finally used for efficacy evaluation. The median, minimal and maximal values for this parameter were determined for each group at each time point. […]

A short description of data set [3]: Example 1: blood/plasma concentrations of E-6087 in treated dogs. It is filed as in vivo, dog. On the procedure:
(§8) According to the institutional ethics committee's recommendations, the first and third inoculations were done in the right stifle while the second and fourth inoculations were done in the left stifle. On each day of arthritis induction, the anti-inflammatory and analgesic efficacy of treatments was assessed at different time points (just before the inoculation, and 0.5, 1, 2, 3, 4, 6, 9 and 12 hours later). Two clinical signs of arthritis were assessed by using a scoring system at each time point: visual lameness (whilst standing and walking) and pain at (inoculated stifle) palpation. The median, minimal and maximal values for this parameter were determined for each group at each time point. Blood sampling was performed at different time points during the study in dogs of groups I and II in order to determine blood concentrations of E-6087.

In data set [4] the test system is urate crystal induced acute arthritis in the stifle (femorotibial) joint. As to the kind of experiment: Example 1: reversible urate crystal acute arthritis model in dog, E-6087 p.o. 4 mg/kg on D0 and D12. The format is in vivo.
From the text: as §1, §2, §3, §4, §5, §6, §7
This study was designed to determine whether the blood levels of E-6087 achieved after one single oral dose of E-6087 at 4 mg/kg in dog, do have some short and/or long-term antiinflammatory and analgesic effects. In addition, a second dose of E-6087 at 4 mg/kg was administered to evaluate the eventual effect derived from the accumulation of the molecule in blood.
The study was performed with seven male Beagle dogs randomly allocated to 3 groups.
During the study, the arthritis induction model was implemented on four occasions to each dog: • In dogs of Group I, on Days 0*, 7, 14** and 21. • In dogs of Group II, on Days 2**, 7, 14** and 21. • In dogs of Group III, on […].
as §8

Setting [5] is: induction on day D7 after the first 4 mg/kg p.o. dose.
[6] abbreviates: induction two hours after the first 4 mg/kg p.o. dose (Day 0).
Where [7] appears, read: inductions on D14 and D21, after the second 4 mg/kg dose on D12.

As to `NS(=O)(=O)c1ccc(N2N=C(C(F)(F)F)CC2c2ccc(F)cc2F)cc1` (racemic) [E-6087], the “P of reduction in CSS compared to the Placebo group” value in data set [1] (day 28, statistically significant) is recorded as < 0.05; in data set [1] (day 42, highly significant), < 0.01. Also, the “Mean Clinical Sum Score (CSS)” value in data set [1] (dropped under the threshold between day 7 and day 14) is on record as < 6. Also, the “Inflammatory/painful reaction after arthritis induction” value in data set [2] (Group C, treatment regimen II (8 mg/kg loading, 4 mg/kg weekly), from Day 9 onwards) is listed as “very mild reaction”; in data set [2] (Group C, treatment regimen II, induction on Day 0, two hours after the 8 mg/kg loading dose) it was “severe inflammatory/painful reaction”; in data set [2] (Groups A and B, treatment regimen I (4 mg/kg Days 0 and 1, then 4 mg/kg weekly), inductions on Days 2, 4 and 9) it was “mild inflammatory/painful reactions”; in data set [2] (Groups A and B, treatment regimen I, inductions on Days 14, 23 and 28), “none (or very mild) reactions”. In addition, the “Adverse reactions related to the administration” value is recorded as “No adverse reactions” in data set [2] (Groups A, B and C, throughout the study); “No adverse reactions” in data set [4] (4 mg/kg p.o. on D0 and D12, throughout the 28-day study). Besides, in data set [3] (4 mg/kg p.o. on D0 and D12, blood samples of treated dogs), the “Plasma levels after the second dose” value is listed as “increase in plasma levels”. Further, in data set [3] (4 mg/kg p.o., 48 hours after administration), the “Blood levels 48 hours after administration” value is listed as “significant blood levels”. For the same compound, the “Persistence of anti-inflammatory/analgesic effect” value in data set [4] (after the second dose of 4 mg/kg (12 days after the first dose)) is reported as “persisted at least during nine days”. Further, the “Lameness assessment (control of induced lameness)” value was “slightly controlled” in data set [4] (setting [5]), “not controlled at all” in data set [4] (setting [6]) and “absolutely controlled” in data set [4] (setting [7]). Besides, the “Pain assessment (control of induced pain at palpation)” value in data set [4] (setting [5]) is “slightly controlled”; in data set [4] (setting [6]), “not controlled at all”; in data set [4] (setting [7]), “absolutely controlled”.
